# From article PMC11984407, “A natural small molecule isoginkgetin alleviates hypercholesterolemia and atherosclerosis by targeting ACLY” (Theranostics, 2025)
# Legend:
# [1] = target: T1, recombinant ACLY protein (Homo sapiens, UniProt P53396); test: ACLY activity assay in vitro (cell-free ADP-Glo assay); type: biochemical; conditions: read-out: ACLY enzyme activity IC50
# T1 sequence (P53396 1-1101): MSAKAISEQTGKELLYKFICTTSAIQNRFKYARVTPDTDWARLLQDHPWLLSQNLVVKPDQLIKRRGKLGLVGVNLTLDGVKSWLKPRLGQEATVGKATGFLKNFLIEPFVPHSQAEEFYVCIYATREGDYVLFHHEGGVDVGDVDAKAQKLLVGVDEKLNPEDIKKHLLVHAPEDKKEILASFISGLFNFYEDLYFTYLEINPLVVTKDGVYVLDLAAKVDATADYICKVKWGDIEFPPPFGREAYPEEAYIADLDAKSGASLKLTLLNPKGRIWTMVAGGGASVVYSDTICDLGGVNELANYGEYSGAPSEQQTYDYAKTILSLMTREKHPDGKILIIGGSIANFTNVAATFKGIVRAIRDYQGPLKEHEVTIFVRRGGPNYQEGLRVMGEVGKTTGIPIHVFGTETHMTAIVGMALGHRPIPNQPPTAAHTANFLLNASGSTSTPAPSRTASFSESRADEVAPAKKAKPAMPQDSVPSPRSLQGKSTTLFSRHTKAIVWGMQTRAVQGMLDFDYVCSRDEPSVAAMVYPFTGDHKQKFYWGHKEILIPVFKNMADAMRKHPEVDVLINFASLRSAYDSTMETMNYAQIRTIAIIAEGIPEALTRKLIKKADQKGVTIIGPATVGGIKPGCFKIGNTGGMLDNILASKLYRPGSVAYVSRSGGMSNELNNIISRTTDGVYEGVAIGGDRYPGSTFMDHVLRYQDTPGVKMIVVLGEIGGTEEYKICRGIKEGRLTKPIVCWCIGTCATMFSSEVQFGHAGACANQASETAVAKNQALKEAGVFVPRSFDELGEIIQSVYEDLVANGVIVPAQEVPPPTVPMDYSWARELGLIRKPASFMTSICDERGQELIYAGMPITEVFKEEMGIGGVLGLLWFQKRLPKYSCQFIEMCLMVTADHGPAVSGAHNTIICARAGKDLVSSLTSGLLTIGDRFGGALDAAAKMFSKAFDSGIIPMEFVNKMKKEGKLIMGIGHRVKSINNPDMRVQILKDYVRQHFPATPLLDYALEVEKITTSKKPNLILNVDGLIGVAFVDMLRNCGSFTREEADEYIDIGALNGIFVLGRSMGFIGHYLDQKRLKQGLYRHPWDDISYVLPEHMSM
# Method: ACLY activity was assessed in a cell-free system using an ADP-Glo dependent assay, as previously described. Briefly, the reaction was conducted in a 384-well plate containing 2 µL of substrate (5 mmol/L ATP, 30 mmol/L citrate, 15 mmol/L CoA) in kinase buffer (40 mmol/L Tris base, 10 mmol/L MgCl2, 5 mmol/L DTT). The reaction was initiated by adding 20 nmol/L recombinant human ACLY protein and various concentrations of the compounds, followed by incubation for 30 min at 37 °C. During the reaction, ACLY converted ATP to ADP. ADP levels, which reflect ACLY activity, were quantified using the ADP-Glo assay kit (V9102, Promega, Madison, USA) in accordance with the manufacturer's instructions. The enzymatic activity curve was analyzed using the log (inhibitor) versus normalized response-variable slope function in GraphPad Prism.
# [2] = target: T2, ACLY (Mesocricetus auratus, UniProt A0A1U7RF50); test: ACLY activity in vivo, hamster liver extracts (MDH-coupled method)
# T2 construct: from tissue; host or cells: liver of hamsters and of Ldlr-/- hamsters dosed with ISOGK
# T2 sequence (A0A1U7RF50 1-1101): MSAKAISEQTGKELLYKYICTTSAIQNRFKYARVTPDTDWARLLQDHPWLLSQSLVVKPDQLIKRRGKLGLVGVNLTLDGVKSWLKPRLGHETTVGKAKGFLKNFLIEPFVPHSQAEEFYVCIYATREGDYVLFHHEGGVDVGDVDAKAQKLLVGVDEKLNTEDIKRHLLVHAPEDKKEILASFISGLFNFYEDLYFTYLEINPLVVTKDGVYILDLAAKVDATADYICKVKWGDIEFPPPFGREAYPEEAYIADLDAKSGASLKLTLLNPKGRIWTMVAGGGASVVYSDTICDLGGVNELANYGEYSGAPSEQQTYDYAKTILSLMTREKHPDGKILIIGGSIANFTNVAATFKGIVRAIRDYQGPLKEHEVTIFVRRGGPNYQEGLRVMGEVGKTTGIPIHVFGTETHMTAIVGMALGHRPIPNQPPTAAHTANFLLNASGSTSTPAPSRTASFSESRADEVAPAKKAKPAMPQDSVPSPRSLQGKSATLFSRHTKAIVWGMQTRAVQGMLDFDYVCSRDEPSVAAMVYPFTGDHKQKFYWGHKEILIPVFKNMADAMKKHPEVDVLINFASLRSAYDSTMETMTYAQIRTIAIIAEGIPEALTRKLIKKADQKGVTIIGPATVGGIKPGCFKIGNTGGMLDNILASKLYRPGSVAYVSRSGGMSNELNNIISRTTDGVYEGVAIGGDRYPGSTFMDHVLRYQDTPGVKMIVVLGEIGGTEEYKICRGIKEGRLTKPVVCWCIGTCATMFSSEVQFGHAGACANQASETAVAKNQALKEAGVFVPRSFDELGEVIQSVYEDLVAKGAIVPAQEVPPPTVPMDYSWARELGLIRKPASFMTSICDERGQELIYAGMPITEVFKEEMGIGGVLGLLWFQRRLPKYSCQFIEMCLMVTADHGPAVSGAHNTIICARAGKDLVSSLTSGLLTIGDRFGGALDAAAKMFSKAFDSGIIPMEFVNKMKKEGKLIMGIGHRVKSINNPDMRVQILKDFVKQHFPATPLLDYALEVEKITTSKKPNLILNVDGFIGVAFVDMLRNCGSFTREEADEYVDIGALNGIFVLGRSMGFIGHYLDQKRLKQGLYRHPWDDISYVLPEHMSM
# Method: The activity of the ACLY enzyme was assayed utilizing malate dehydrogenase (MDH)-coupled method kits (BC4240, Solarbio, Beijing, China). In summary, liver extracts were incubated in a reaction buffer comprising 20 mM citrate, 10 mM MgCl₂, 10 mM DTT, 0.5 U/ml of malic dehydrogenase, 0.33 mM CoASH, and 0.14 mM NADH, both in the presence and absence of 5 mM ATP. The quantity of oxaloacetate produced by ACLY catalysis was determined by measuring the alteration in absorbance at 340 nm, which corresponds to the depletion of NADH during the MDH-catalyzed reaction. After accounting for background variations in absorbance in the absence of ATP, the relative ACL activities were computed by normalizing the data to the weight of the liver tissue.
smiles,measurement,setting,value
"COc1ccc(-c2cc(=O)c3c(O)cc(O)c(-c4cc(-c5cc(=O)c6c(O)cc(O)cc6o5)ccc4OC)c3o2)cc1 [ISOGK, Isoginkgetin]",IC50,[1],5.46 ± 1.11 µM
same,ACLY enzyme activity in liver tissue,[2]; Ldlr-/- hamsters,significantly inhibits ACLY activity
same,ACLY enzyme activity in liver tissue,"[2]; high cholesterol diet hamsters, 4 weeks",significantly inhibits ACLY activity
